In PMC9742383, “From tryptamine to the discovery of efficient multi-target directed ligands against cholinesterase-associated neurodegenerative disorders” (Frontiers in Pharmacology, 2022):
Where two headings read alike, the source gives them in different places.

How the values were obtained:
AChE = molecular target: T1, AChE (Electrophorus electricus, UniProt O42275); test: Ellman colorimetric assay; type: biochemical
T1 construct: native enzyme, Type V-S lyophilized powder, Sigma-Aldrich

in vitro [1] = test: in vitro; design: species or system LO2, HepG2; MTT cytotoxicity, absorbance at 570 nm; details: human, sh-sy5y; read-out: ^a IC50 ± SD (μM) / SH-SY5Y
Experimental: (§1) The cell lines present in this study were purchased from the China Center for Type Collection (CCTCC, China). For cytotoxicity assay, HT-22, BV2, SH-SY5Y, HepG2, and LO2 cells were incubated in 96-well plates at the density of 5 × 10³ per well. After incubation for 12 h at 37°C, the tested compounds with the required concentrations were added to the corresponding wells and continuously incubated for 24 h at 37°C. Then, the prepared MTT (3-[4,5-dimethyl-2-thiazolyl]-2,5-diphenyl-2H-tetrazolium bromide) solution was added to each well and co-incubated for another 4 h at 37°C. Then, the supernatant was removed, and 100 μl DMSO was added to each well. The OD value of each well was detected at 570 nm using a microplate reader (Bio-Rad Laboratories, CA, United States). The IC50 values were calculated using IBM SPSS Statistics 25.0 software. All experiments were performed in triplicate, and the results were shown as the mean ± SD. In order to further evaluate the applicability of the compounds with dibenzyl groups for neurological diseases, we also tested the cytotoxicity of the selected compounds (2f, 2h, 2j, 2m, 2o-2r, 2t, and 2u) bearing little toxicity on HT-22 cells, microglia cell line BV2, and human neuroblastoma cell line SH-SY5Y, which are widely used in the study of neurological diseases. […] In view of some carbamate-based ChE inhibitors reported to be hepatotoxic, we further performed the preliminary evaluation of the hepatotoxicity of the selected compounds on human normal liver cell line LO2 and human hepatocellular carcinoma cell line HepG2.

in vitro [2] = test: in vitro; design: species or system SH-SY5Y, HepG2; MTT cytotoxicity, absorbance at 570 nm; details: human, lo2 cells; read-out: ^a IC50 ± SD (μM) / LO2
Experimental: as §1

in vitro [3] = test: in vitro; design: species or system SH-SY5Y, LO2; MTT cytotoxicity, absorbance at 570 nm; details: human, read-out: ^a IC50 ± SD (μM) / HepG2
Experimental: as §1

in vitro [4] = test: in vitro; design: MTT cytotoxicity, absorbance at 570 nm, HT-22 mouse hippocampal neuronal cells; details: mouse, read-out: IC50 ± SD / HT-22 ^a
Experimental: The cell lines present in this study were purchased from the China Center for Type Collection (CCTCC, China). For cytotoxicity assay, HT-22, BV2, SH-SY5Y, HepG2, and LO2 cells were incubated in 96-well plates at the density of 5 × 10³ per well. After incubation for 12 h at 37°C, the tested compounds with the required concentrations were added to the corresponding wells and continuously incubated for 24 h at 37°C. Then, the prepared MTT (3-[4,5-dimethyl-2-thiazolyl]-2,5-diphenyl-2H-tetrazolium bromide) solution was added to each well and co-incubated for another 4 h at 37°C. Then, the supernatant was removed, and 100 μl DMSO was added to each well. The OD value of each well was detected at 570 nm using a microplate reader (Bio-Rad Laboratories, CA, United States). The IC50 values were calculated using IBM SPSS Statistics 25.0 software. All experiments were performed in triplicate, and the results were shown as the mean ± SD. In order to explore the applicability of the synthesized CTDs in neurological diseases, the neuronal cytotoxicity of the synthesized compounds was evaluated on mouse hippocampal neuronal cell line HT-22. […] In view of these CTDs endowed strong inhibition efficacy on BuChE, we preliminarily evaluated their safety range by comparing their IC50 values on cytotoxicity and BuChE inhibitory activity. […] Therefore, the series of compounds with dibenzyl groups, especially compounds bearing ring carbon alkyl chains (2f-2h) and tertiary amine residues (2j-2u) with little cytotoxicity on HT-22, can be considered as potential lead building blocks for further structure optimization to develop novel effective agents against neurological diseases.

BuChE [5] = molecular target: T2, BuChE (Equus caballus, UniProt P81908); test: Ellman colorimetric assay; type: biochemical; design: gene BCHE; native enzyme from equine serum, purchased from Sigma-Aldrich
BuChE [6] = molecular target: T2, BuChE; test: time-dependent Ellman assay, kobs analysis; design: gene BCHE; details: read-out: kc; equilibrium constant of reversible step before carbamylation; covalent
[7] = read-out: IC50 ± SD ^a / AChE ^a
[8] = ht-22 hippocampal neuronal cells
[9] = read-out: IC50 ± SD ^a / BuChE ^a

T2 sequence (P81908 whole entry): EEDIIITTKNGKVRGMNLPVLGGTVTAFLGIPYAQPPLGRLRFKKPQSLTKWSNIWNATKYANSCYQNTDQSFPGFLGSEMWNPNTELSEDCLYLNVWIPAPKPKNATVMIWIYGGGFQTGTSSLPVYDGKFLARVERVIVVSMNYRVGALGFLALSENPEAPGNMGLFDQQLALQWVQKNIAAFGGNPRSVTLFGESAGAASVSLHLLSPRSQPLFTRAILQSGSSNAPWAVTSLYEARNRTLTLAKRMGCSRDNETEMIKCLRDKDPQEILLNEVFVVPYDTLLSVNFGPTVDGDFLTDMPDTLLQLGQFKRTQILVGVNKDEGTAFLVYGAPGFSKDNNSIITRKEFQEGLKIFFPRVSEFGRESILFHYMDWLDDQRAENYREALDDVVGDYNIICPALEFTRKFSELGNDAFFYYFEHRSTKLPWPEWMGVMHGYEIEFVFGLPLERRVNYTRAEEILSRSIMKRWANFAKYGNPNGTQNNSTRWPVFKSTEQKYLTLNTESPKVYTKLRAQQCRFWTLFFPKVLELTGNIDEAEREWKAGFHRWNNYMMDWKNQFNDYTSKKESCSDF
T1 sequence (O42275 24-633): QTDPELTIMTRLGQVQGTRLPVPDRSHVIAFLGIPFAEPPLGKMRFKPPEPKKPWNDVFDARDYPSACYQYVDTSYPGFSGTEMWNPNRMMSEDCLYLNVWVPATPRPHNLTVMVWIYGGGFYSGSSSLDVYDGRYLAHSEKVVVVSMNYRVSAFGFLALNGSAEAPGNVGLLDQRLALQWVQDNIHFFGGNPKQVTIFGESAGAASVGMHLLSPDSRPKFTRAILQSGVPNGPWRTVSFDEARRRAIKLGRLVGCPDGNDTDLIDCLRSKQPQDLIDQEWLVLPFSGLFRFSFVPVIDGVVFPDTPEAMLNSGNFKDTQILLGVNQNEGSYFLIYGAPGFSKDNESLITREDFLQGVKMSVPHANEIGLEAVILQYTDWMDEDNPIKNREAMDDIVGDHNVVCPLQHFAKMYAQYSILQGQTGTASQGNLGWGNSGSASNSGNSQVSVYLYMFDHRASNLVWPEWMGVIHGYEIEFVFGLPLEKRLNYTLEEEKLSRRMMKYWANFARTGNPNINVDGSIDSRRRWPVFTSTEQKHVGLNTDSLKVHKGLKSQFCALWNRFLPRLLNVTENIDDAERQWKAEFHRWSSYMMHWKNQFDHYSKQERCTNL

Work on `O=C(Oc1ccc2[nH]cc(CCN(Cc3ccccc3)Cc3ccccc3)c2c1)N1CCCC1` [2r, 3-(2-(dibenzylamino)ethyl)-1H-indol-5-yl pyrrolidine-1-carboxylate] yielded an IC50 (AChE; read-out: IC50 ± SD / AChE ^a) greater than 100 µM, a CC50 at 24 h (in vitro [1]) greater than 100 µM and a CC50 at 24 h (in vitro [2]) greater than 100 µM. It also gave a CC50 at 24 h (in vitro [3]; hepg2) greater than 100 µM, a CC50 at 24 h (in vitro [4]; ht-22) of 79.8 ± 5.36 µM and an IC50 (BuChE [5]; read-out: IC50 ± SD / BuChE ^a) of 0.0205 ± 0.0017 µM.
`O=C(NC1CC1)Oc1ccc2[nH]cc(CCN(Cc3ccccc3)Cc3ccccc3)c2c1` [2f, 3-(2-(dibenzylamino)ethyl)-1H-indol-5-yl cyclopropylcarbamate] showed an IC50 (AChE; read-out: IC50 ± SD / AChE ^a) greater than 100 µM, a CC50 at 24 h (in vitro [4]; ht-22) of 60.2 ± 3.85 µM and a KI (inactivation) (BuChE [6]) of 0.00159 µM. It also gave an IC50 (BuChE [5]; read-out: IC50 ± SD / BuChE ^a) of 0.00875 ± 0.00023 µM.
Work on `CCCCCNC(=O)Oc1ccc2[nH]cc(CCN(Cc3ccccc3)Cc3ccccc3)c2c1` [2c, 3-(2-(dibenzylamino)ethyl)-1H-indol-5-yl pentylcarbamate] yielded an IC50 (AChE; read-out: IC50 ± SD / AChE ^a) greater than 100 µM, a CC50 at 24 h (in vitro [4]; ht-22) of 37.47 ± 0.23 µM and a KI (inactivation) (BuChE [6]) of 0.00705 µM. The IC50 (BuChE [5]; read-out: IC50 ± SD / BuChE ^a) was 0.0021 ± 0.00014 µM.
Compound `CCN(C)C(=O)Oc1cccc([C@H](C)N(C)C)c1` [rivastigmine] has a CC50 at 24 h (in vitro [1]) greater than 100 µM, a CC50 at 24 h (in vitro [2]) greater than 100 µM and a CC50 at 24 h (in vitro [3]; hepg2) greater than 100 µM. For the same compound, the KI (inactivation) (BuChE [6]) was 0.0559 µM.
`O=C(Oc1ccc2[nH]cc(CCN(Cc3ccccc3)Cc3ccccc3)c2c1)N1CCC1` [2q, 3-(2-(dibenzylamino)ethyl)-1H-indol-5-yl azetidine-1-carboxylate] showed an IC50 (AChE; read-out: IC50 ± SD / AChE ^a) of 0.742 ± 0.00987 µM, a CC50 at 24 h (in vitro [3]; hepg2 cells) greater than 100 µM and a CC50 at 24 h (in vitro [4]; ht-22) of 86.5 ± 1.82 µM. For the same compound, the IC50 (BuChE [5]; read-out: IC50 ± SD / BuChE ^a) was 0.00165 ± 3e-05 µM.
Work on `O=C(NC1CC1)Oc1ccc2[nH]cc(CCNCc3ccccc3)c2c1` [3f, 3-(2-(benzylamino)ethyl)-1H-indol-5-yl cyclopropylcarbamate] yielded an IC50 (AChE; [7]) of 3.17 µM, a CC50 at 24 h (in vitro [4]; [8]) of 15 ± 1.17 µM and a KI (inactivation) (BuChE [6]) of 0.00576 µM. The IC50 (BuChE [5]; [9]) was 0.0157 ± 0.0013 µM.
In the case of `O=C(Oc1ccc2[nH]cc(CCN(Cc3ccccc3)Cc3ccccc3)c2c1)N1CCOCC1` [2u, 3-(2-(dibenzylamino)ethyl)-1H-indol-5-yl morpholine-4-carboxylate], the IC50 (AChE; read-out: IC50 ± SD / AChE ^a) is reported as greater than 100 µM, the CC50 at 24 h (in vitro [1]) is reported as greater than 100 µM and the CC50 at 24 h (in vitro [2]) is reported as greater than 100 µM. The CC50 at 24 h (in vitro [3]; hepg2) was greater than 100 µM, the CC50 at 24 h (in vitro [4]; ht-22) was 78.7 ± 3.79 µM and the IC50 (BuChE [5]; read-out: IC50 ± SD / BuChE ^a) was 0.114 ± 0.00145 µM.
For `O=C(NC1CCCCC1)Oc1ccc2[nH]cc(CCN(Cc3ccccc3)Cc3ccccc3)c2c1` [2h, 3-(2-(dibenzylamino)ethyl)-1H-indol-5-yl cyclohexylcarbamate], the IC50 (AChE; read-out: IC50 ± SD / AChE ^a) was greater than 100 µM, the CC50 at 24 h (in vitro [1]) was greater than 100 µM and the CC50 at 24 h (in vitro [2]) was greater than 100 µM. The CC50 at 24 h (in vitro [4]; ht-22) was 74.2 ± 1.5 µM and the IC50 (BuChE [5]; read-out: IC50 ± SD / BuChE ^a) was 0.016 ± 0.00032 µM.
In the case of `CN(C(=O)Oc1ccc2[nH]cc(CCN(Cc3ccccc3)Cc3ccccc3)c2c1)c1ccccc1` [2p, 3-(2-(dibenzylamino)ethyl)-1H-indol-5-yl methyl(phenyl)carbamate], the IC50 (AChE; read-out: IC50 ± SD / AChE ^a) is reported as greater than 100 µM, the CC50 at 24 h (in vitro [1]) is reported as greater than 100 µM and the CC50 at 24 h (in vitro [2]) is reported as greater than 100 µM. It also gave a CC50 at 24 h (in vitro [3]; hepg2 cells) greater than 100 µM, a CC50 at 24 h (in vitro [4]; ht-22) greater than 100 µM and an IC50 (BuChE [5]; read-out: IC50 ± SD / BuChE ^a) of 0.0189 ± 0.00134 µM.
For `O=C(Oc1ccc2[nH]cc(CCNCc3ccccc3)c2c1)N1CCCCC1` [3s, 3-(2-(benzylamino)ethyl)-1H-indol-5-yl piperidine-1-carboxylate], the IC50 (AChE; [7]) was 9.08 µM, the CC50 at 24 h (in vitro [4]; [8]) was 13.8 ± 0.91 µM and the KI (inactivation) (BuChE [6]) was 0.00508 µM. It also gave an IC50 (BuChE [5]; [9]) of 0.0339 ± 0.00214 µM.
With `CN(C)C(=O)Oc1ccc2[nH]cc(CCN(Cc3ccccc3)Cc3ccccc3)c2c1` [2j, 3-(2-(dibenzylamino)ethyl)-1H-indol-5-yl dimethylcarbamate] the IC50 (AChE; read-out: IC50 ± SD / AChE ^a) was greater than 100 µM, the CC50 at 24 h (in vitro [1]) was greater than 100 µM and the CC50 at 24 h (in vitro [2]) was greater than 100 µM. For the same compound, the CC50 at 24 h (in vitro [3]; hepg2) was greater than 100 µM, the CC50 at 24 h (in vitro [4]; ht-22) was greater than 100 µM and the IC50 (BuChE [5]; read-out: IC50 ± SD / BuChE ^a) was 0.00677 ± 0.00027 µM.
`O=C(Oc1ccc2[nH]cc(CCN(Cc3ccccc3)Cc3ccccc3)c2c1)N1CCCCCC1` [2t, 3-(2-(dibenzylamino)ethyl)-1H-indol-5-yl azepane-1-carboxylate] gave an IC50 (AChE; read-out: IC50 ± SD / AChE ^a) greater than 100 µM, a CC50 at 24 h (in vitro [2]) greater than 100 µM and a CC50 at 24 h (in vitro [3]; hepg2) greater than 100 µM. It also gave a CC50 at 24 h (in vitro [4]; ht-22) greater than 100 µM and an IC50 (BuChE [5]; read-out: IC50 ± SD / BuChE ^a) of 0.068 ± 0.00842 µM.
`CCCCN(CCCC)C(=O)Oc1ccc2[nH]cc(CCN(Cc3ccccc3)Cc3ccccc3)c2c1` [2m, 3-(2-(dibenzylamino)ethyl)-1H-indol-5-yl dibutylcarbamate] showed an IC50 (AChE; read-out: IC50 ± SD / AChE ^a) greater than 100 µM, a CC50 at 24 h (in vitro [1]) greater than 100 µM and a CC50 at 24 h (in vitro [2]) greater than 100 µM. It also gave a CC50 at 24 h (in vitro [3]; hepg2) greater than 100 µM, a CC50 at 24 h (in vitro [4]; ht-22) of 65.28 ± 0.09 µM and an IC50 (BuChE [5]; read-out: IC50 ± SD / BuChE ^a) of 0.0138 ± 0.00067 µM.
For `CCCCCNC(=O)Oc1ccc2[nH]cc(CCNCc3ccccc3)c2c1` [3c, 3-(2-(benzylamino)ethyl)-1H-indol-5-yl pentylcarbamate], the IC50 (AChE; [7]) was 1.13 µM, the CC50 at 24 h (in vitro [4]; [8]) was 10.6 ± 0.24 µM and the KI (inactivation) (BuChE [6]) was 0.0737 µM. It also gave an IC50 (BuChE [5]; [9]) of 0.0239 ± 0.0029 µM.
Compound `CCCCCCCNC(=O)Oc1ccc2[nH]cc(CCN(Cc3ccccc3)Cc3ccccc3)c2c1` [2e, 3-(2-(dibenzylamino)ethyl)-1H-indol-5-yl heptylcarbamate] has an IC50 (AChE; read-out: IC50 ± SD / AChE ^a) greater than 100 µM, a CC50 at 24 h (in vitro [4]; ht-22) of 35.6 ± 2.45 µM and a KI (inactivation) (BuChE [6]) of 0.00255 µM. For the same compound, the IC50 (BuChE [5]; read-out: IC50 ± SD / BuChE ^a) was 0.00142 ± 4e-06 µM.
Work on `CCCCCCCNC(=O)Oc1ccc2[nH]cc(CCN)c2c1` [4e, 3-(2-aminoethyl)-1H-indol-5-yl heptylcarbamate] yielded an IC50 (AChE; ATCI substrate, […] min preincubation […] °C, pH […], read-out: IC50 ± SD ^a / AChE ^a) greater than 100 µM, a CC50 at 24 h (in vitro [4]; [8]) of 26.1 ± 2.29 µM and a KI (inactivation) (BuChE [6]) of 0.00302 µM. The IC50 (BuChE [5]; BTCI substrate, […] min preincubation […] °C, pH […], pseudo-irreversible carbamate, covalent, read-out: IC50 ± SD ^a / BuChE ^a) was 0.0101 ± 0.00083 µM.
